Legend:
[1] = Antiangiogenic activity in VEGF-stimulated human endothelial cells assessed as inhibition of cell growth and measured after 11 days by immunohistochemical staining based analysis; conditions: 264 h
Heparanase [2] = target: T1, Heparanase (Homo sapiens, UniProt Q9Y251); experiment: Inhibition of HPSE (unknown origin)
T1 sequence (Q9Y251 whole entry): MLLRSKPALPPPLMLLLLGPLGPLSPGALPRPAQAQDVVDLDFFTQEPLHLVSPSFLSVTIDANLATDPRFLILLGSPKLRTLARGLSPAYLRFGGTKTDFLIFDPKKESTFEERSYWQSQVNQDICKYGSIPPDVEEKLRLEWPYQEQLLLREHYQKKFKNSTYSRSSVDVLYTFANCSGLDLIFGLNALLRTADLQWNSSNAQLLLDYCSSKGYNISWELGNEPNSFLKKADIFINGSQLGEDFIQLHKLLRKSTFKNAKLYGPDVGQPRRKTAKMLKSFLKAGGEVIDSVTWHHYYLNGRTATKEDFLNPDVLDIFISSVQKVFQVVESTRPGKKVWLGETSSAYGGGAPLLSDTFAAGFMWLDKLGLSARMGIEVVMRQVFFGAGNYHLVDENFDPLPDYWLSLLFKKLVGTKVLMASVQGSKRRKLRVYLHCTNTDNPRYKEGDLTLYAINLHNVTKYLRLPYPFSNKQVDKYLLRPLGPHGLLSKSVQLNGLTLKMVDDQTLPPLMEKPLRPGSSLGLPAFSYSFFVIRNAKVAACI

HT-1080 [3] = experiment: Antimigratory activity against human HT-1080 cells assessed as inhibition of cell migration
HT-1080 [4] = experiment: Anti-invasive activity against human HT-1080 cells assessed as inhibition of cell invasive
Heparanase [5] = target: T1, Heparanase; experiment: Inhibition of human HPSE assessed as residual amount of heparin using porcine heparin as substrate preincubated for 5 mins followed by substrate addition and measured after 15 mins by spectrophotometric analysis
B16-F10 = experiment: Inhibition of cell migration in mouse B16-F10 cells by wound healing assay
[6] = Antiproliferative activity against mouse Lewis lung carcinoma cell line assessed as reduction in cell proliferation by MTT assay; type: functional, cell-based
HepG2 [7] = experiment: Antiproliferative activity against human HepG2 assessed as reduction in cell proliferation by MTT assay; type: functional, cell-based
[8] = Anti-invasive activity against mouse Lewis lung carcinoma cell line assessed as inhibition of cell invasion incubated for 24 hrs by transwell assay; type: functional, cell-based
HepG2 [9] = experiment: Anti-invasive activity against human HepG2 assessed as inhibition of cell invasion incubated for 48 hrs by transwell assay; type: functional, cell-based; conditions: HepG2, 48 h
[10] = Antimigratory activity against mouse Lewis lung carcinoma cell line assessed as inhibition of cell migration incubated for 24 hrs by Wound healing assay; type: functional, cell-based
HepG2 [11] = experiment: Antimigratory activity against human HepG2 assessed as inhibition of cell migration incubated for 48 hrs by Wound healing assay; type: functional, cell-based; conditions: HepG2, 48 h
[12] = Antiangiogenic activity in bFGF-stimulated human microvascular endothelial cells assessed as inhibition of cell growth incubated for 72 hrs; type: functional, cell-based, Cardiac microvascular endothelial cell

O=C(O)c1ccc2c(c1)C(=O)N(c1cccc(-c3nc4ccccc4o3)c1)C2=O
IC50 [1]: 40 µM

CCCCCCCCCCCCCCCC(=O)C1=C(OC)[C@@H](CO)OC1=O
IC50 (Heparanase [2]): > 100 µM

CCCCCCCCCCCCCCCC(=O)C1=C(OCc2ccccc2)[C@@H](CO)OC1=O
IC50 (HT-1080 [3]): 3 µM | IC50 (HT-1080 [4]): 3 µM

CCCCCCCCCCCCCCCc1cc(O[C@@H]2O[C@H](C(=O)O)[C@@H](O)[C@H](O)[C@H]2O)cc(O)c1C(=O)Oc1cc(C)c(C(=O)O)c(O)c1
IC50 (Heparanase [5]): 3 µM | IC50 (B16-F10): 15 µM

CCCCCCCCCCCCCCCc1cc(O[C@@H]2O[C@H](C(=O)OC)[C@@H](O)[C@H](O)[C@H]2O)cc(O)c1C(=O)Oc1cc(C)c(C(=O)O)c(O)c1
IC50 (B16-F10): 30 µM

Oc1c(I)cc(I)cc1-c1nn2c(-c3ccccc3)nnc2s1
IC50 [6]: 11.9 µM | IC50 (HepG2 [7]): 8.3 µM | IC50 [8]: 5 µM | IC50 (HepG2 [9]): 5 µM | IC50 [10]: 5 µM | IC50 (HepG2 [11]): 5 µM

CCCCCCCCCCCCCCCC(=O)C1=C(OC(C)C)[C@@H](CO)OC1=O
IC50 (Heparanase [2]): > 100 µM

Cc1ccc(C(=O)Nc2ccc(S(=O)(=O)O)c3cc(S(=O)(=O)O)cc(S(=O)(=O)O)c23)cc1NC(=O)c1cccc(NC(=O)Nc2cccc(C(=O)Nc3cc(C(=O)Nc4ccc(S(=O)(=O)O)c5cc(S(=O)(=O)O)cc(S(=O)(=O)O)c45)ccc3C)c2)c1 [SURAMIN]
IC50 [12]: 0.538 µM

Source: ChEMBL document CHEMBL5244236, “Antitumor activity and structure-activity relationship of heparanase inhibitors: Recent advances” (Eur J Med Chem, 2020)
